Patent US6440660B1 (priority 1995, dated 2002)
In brackets after ≈: the same amount, converted by molar mass.

Tests used:
[1] = system: P. falciparum field isolate TM352; conditions: strain TM352; cited from earlier work
[2] = system: P. falciparum field isolate TM335; conditions: cited from earlier work
[3] = system: P. falciparum field isolate TM346; conditions: cited from earlier work
[4] = system: P. falciparum field isolate PR145; conditions: cited from earlier work
[5] = system: P. falciparum field isolate TM336; conditions: strain TM336; cited from earlier work
[6] = system: P. falciparum W2; conditions: strain W2; cited from earlier work
[7] = system: P. falciparum W2mef; conditions: strain W2mef; cited from earlier work
[8] = system: W2mef parasites (resistant to mefloquine); assay: Mefloquine resistance reversal study, W2mef (FIGS. 2, 3, 5); format: cell-based, P. falciparum; conditions: mefloquine alone without oligonucleotide, below threshold mefloquine concentration

Structure (SMILES)	IC50 [1] [ng/mL]	IC50 [2] [ng/mL]	IC50 [3] [ng/mL]	IC50 [4] [ng/mL]	IC50 [5] [ng/mL]	IC50 [6] [ng/mL]	IC50 [7] [ng/mL]	3H-hypoxanthine incorporated on average [8]
CCCCN(CCCC)CCC(O)c1cc2c(Cl)cc(Cl)cc2c2cc(C(F)(F)F)ccc12 (stereo not shown) [halofantrine]	3.0 (≈ 0.00599 µM)	0.61 (≈ 0.00122 µM)	3.7 (≈ 0.00739 µM)	2.0 (≈ 0.004 µM)	2.8 (≈ 0.0056 µM)	0.3 (≈ 0.000599 µM)	–	–
C=C[C@H]1C[N@@]2CC[C@H]1C[C@H]2[C@H](O)c1ccnc2ccc(OC)cc12 [quinine]	1.2 (≈ 0.0037 µM)	65 (≈ 0.2 µM)	–	90 (≈ 0.277 µM)	87 (≈ 0.268 µM)	74 (≈ 0.228 µM)	–	–
OC(c1cc(C(F)(F)F)nc2c(C(F)(F)F)cccc12)C1CCCCN1 (stereo not shown) [mefloquine]	22 (≈ 0.0582 µM)	6 (≈ 0.0159 µM)	20 (≈ 0.0529 µM)	10 (≈ 0.0264 µM)	15 (≈ 0.0396 µM)	2 (≈ 0.00529 µM)	16 (≈ 0.0423 µM)	11,000 cpm
